# Laboratory results reported in patent US9365534B2, “Arylated camphenes, processes for their preparation and uses thereof” (Yissum Research Development Company of the Hebrew …, priority 2009, dated 2016).
# Tests used:
# human CB2 receptor [1] = target: T1, human CB2 receptor (Homo sapiens (Human), UniProt P34972); assay: Membrane competition binding assay with [3H]-CP 55,940, CHO-CB2 membranes
# Description: (§1) The cDNA clones for human HA-tagged CB1 and CB2 receptors were obtained from the Missouri S&T cDNA Resource Center (www.cdna.org) in cloning vector pcDNA3.1+. The vector containing the human CB2 receptor was transfected directly into CHO-KI cells obtained from ATCC. The HA-tagged human CB1 receptor sequence was subcloned into the pef4-V5-HisA vector with Kpn1 and Pme1 restriction enzymes and subsequently transfected into CHO-K1 cells. Cells were clonally isolated by limited dilution and screened by immunocytochemistry for expression of the HA tag.
# (§2) Cells were maintained in DMEM/F12 media supplemented with 10% fetal bovine serum (FBS), 100 units/ml penicillin and 100 μg/ml streptomycin and 2 mM L-glutamine. Transfected cell lines were maintained with additional 150 ug/ml zeocin for pEF HA-CB1 transfected cells and 500 ug/ml G-418 for pcDNA HA-CB2 transfected cells (all reagents obtained from Invitrogen).
# (§3) Cells were grown to confluence and harvested in ice cold phosphate buffered saline with 5 mM EDTA. Cells were spun at 200×g for 10 min and frozen at −80° C. until required. Cell pellets were thawed with cold 0.32 M sucrose and homogenised with a glass homogeniser. The homogenate was spun at 1000×g for 10 min at 4° C. and the supernatant spun in a Sorvall ultracentrifuge for 30 min at 100,000×g. The pellet was then washed in ice cold water and re-spun twice more. The final pellet was resuspended in 50 mM Tris pH 7.5, 0.5 mM EDTA. Protein concentration was determined using the Dc protein assay kit (BioRad, Hercules, Calif., USA).
# (§4) Membranes (5-10 μg) were incubated with radioligand and a range of concentrations of test compounds in binding buffer (50 mM Tris pH 7.4, 5 mM MgCl2, 1 mM EDTA) with 0.5% (w/v) bovine serum albumin (BSA) (ICP Bio, New Zealand), at 30° C. for 60 min. Stock solutions of putative cannabinoid ligands were prepared in dimethyl sulfoxide to a concentration of 10 mM. Six different final concentrations of compounds were used ranging from 50 μM to 0.1 nM. […] Assays were terminated by addition of 2 ml ice cold binding buffer and filtration through GF/C filters (Whatman) pre-soaked in cold binding buffer, followed by two washes in the same buffer.
# (§5) Radioactivity was determined by incubation of filters with Irgasafe scintillation fluid (PerkinElmer) and scintillation counting in a Wallac Trilux using Microbeta Trilux software. Data was analysed using the Prism 4.02 programme (GraphPad Software, San Deigo, Calif., USA).
# (§6) All data was analyzed using Prism 4.02. For binding data the Ki was determined from IC50 values derived from competition binding data fitted with one site competition non-linear regression analysis by Prism 4.02 using the Kd values reported above.
# human CB1 receptor [2] = target: T2, human CB1 receptor (Homo sapiens (Human), UniProt P21554); assay: Membrane competition binding assay with [3H]-CP 55,940, CHO-CB1 membranes; settings: CHO-CB1 cellular membranes, 2.5 nM [3H]-CP 55,940; read-out: Competition Binding Assay CB1 Receptor Ki
# Description: as §1, §2, §3, §4, §5, §6
# human CB1 receptor [3] = target: T2, human CB1 receptor; assay: cell-based; settings: whole cells expressing CB1, 50 μM forskolin; read-out: cAMP Assay CB1 Receptor IC50
# Description: as §1, §2
# (§7) Cells were seeded at a density of 10,000 cells per well in poly-L-lysine treated 96-well culture plates (BD Biosciences). The following day wells were incubated with 40 μl DMEM/F12 containing 0.5% (w/v) BSA and 0.5 mM 3-isobutyl-1-methylxanthine (Sigma-Aldrich) for 30 minutes prior to 15 min stimulation with 50 μM forskolin (Tocris Cookson) and varying concentrations of indicated compounds at 37° C., 5% CO2. Assays were stopped by removal of media and addition of 100% ice cold ethanol. Plates were then frozen for a minimum of two hours before complete evaporation of ethanol. The well contents were then reconstituted in 50 μl cAMP assay buffer (20 mM HEPES pH 7.5 and 5 mM EDTA). Half of the reconstituted sample was transferred to round bottom 96-well plates (Greiner Bio-One GmbH) with 50 μl 0.01% w/v PKA (cAMP dependent protein kinase (Sigma-Aldrich) in 1 mM Na citrate pH 6.5 with 2 mM dithiothreitol) and 25 μl [^3H]-cAMP (at 22 nM in cAMP assay buffer) (GE Healthcare, Life Sciences). This was allowed to equilibrate for 3-18 hours. Following this a charcoal slurry (5% (w/v) activated charcoal and 0.2% (w/v) BSA in cAMP assay buffer) was added to the samples and the plates centrifuged at 3000×g, 4° C. for 5 min. Radioactive counts within the supernatant were then determined as described for competition binding assays.
# (§8) pIC50 values were determined from cAMP assays by fitting a sigmoidal concentration response curve using Prism 4.02.
# human CB2 receptor [4] = target: T1, human CB2 receptor; assay: cell-based; settings: for Emax: CHO, read-out: cAMP Assay CB2 Receptor Emax; for IC50: read-out: cAMP Assay CB2 Receptor IC50
# Description: as §1, §2, §7, §8
# T2 sequence (P21554 whole entry): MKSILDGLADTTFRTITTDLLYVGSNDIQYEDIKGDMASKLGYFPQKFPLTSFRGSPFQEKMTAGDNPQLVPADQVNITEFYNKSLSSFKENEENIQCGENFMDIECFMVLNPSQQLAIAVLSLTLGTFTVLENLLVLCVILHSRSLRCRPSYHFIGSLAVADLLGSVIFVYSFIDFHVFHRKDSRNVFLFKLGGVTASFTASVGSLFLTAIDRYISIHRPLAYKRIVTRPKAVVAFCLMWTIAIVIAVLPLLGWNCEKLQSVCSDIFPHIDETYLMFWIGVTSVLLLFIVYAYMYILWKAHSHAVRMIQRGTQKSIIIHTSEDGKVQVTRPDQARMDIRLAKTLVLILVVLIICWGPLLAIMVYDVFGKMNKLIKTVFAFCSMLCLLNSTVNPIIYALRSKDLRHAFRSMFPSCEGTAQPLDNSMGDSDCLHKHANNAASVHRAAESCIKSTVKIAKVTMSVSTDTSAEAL
Structure (SMILES),Ki (human CB2 receptor [1]),Ki (human CB1 receptor [2]),IC50 (human CB1 receptor [3]),Emax (human CB2 receptor [4]),IC50 (human CB2 receptor [4])
"CCCCCCC(C)(C)c1cc(OC)c(C2=C[C@H]3CC[C@]2(CO)C3(C)C)c(OC)c1 [HU-910, (1S,4R)-(2-(2,6-dimethoxy-4-(2-methyloctan-2-yl)phenyl)-7,7-dimethylbicyclo[2.2.1]hept-2-en-1-yl)methanol]",6 nM,1370 nM,> 50000 nM,105 ± 12%,162 nM
"CCCCCCC(C)(C)c1cc(OC)c(C2=C[C@H]3CC[C@]2(C(=O)O)C3(C)C)c(OC)c1 [HU-914, (1S,4R)-2-(2,6-dimethoxy-4-(2-methyloctan-2-yl)phenyl)-7,7-dimethylbicyclo[2.2.1]hept-2-ene-1-carboxylic acid]",1500 nM,> 50000 nM,> 50000 nM,82 ± 7%,2290 nM
